Reference: patent US7101844B2, “Cytoplasmic transduction peptides and uses thereof” (Creagene, Inc., priority 2002, dated 2006)
Entries after “also recorded” stand apart in the source; their conditions may differ.

Key:
[1] = system: HeLa cells; test: Transduction of PTD- and CTP-β-galactosidase into HeLa cells (X-gal staining after fixation); assay type: cell-based; details: for transduction potential / order of transduction potentials into HeLa cells: 100 μg/ml, 1 hr; for transduction potential: fixation; for order of transduction potentials into HeLa cells: β-galactosidase fusion, X-gal staining
Text: Although various other substitutions could be performed, it is essential in this invention that the introduction of a positive charge by arginine and the substitution by an α-helix stabilizing amino acid should be carried out for maintaining the principle function of the PTD peptide. Therefore, as a substitute amino acid, the positively charged amino acid is restricted to arginine, and the negatively charged amino acid is restricted to glutamic acid. β-galactosidase was fused to the CTP candidate peptide, the fusion proteins were isolated and purified (see FIG. 2), and HeLa cells were treated with each of the fusion proteins. This was then followed by an analysis of the transduction potential and a determination of the extent of the cytoplasmic remaining property.
The transduction potential of the PTD and CTP candidates was tested with HeLa cells. Using a 24-well plate (Nunc), 5×10^4 HeLa cells were inoculated into high glucose DMEM (containing 10% FBS) and cultured for 36 hr. The cells were rinsed with PBS and treated with 100 μg/ml of PTD- and CTP-β-galactosidase in an opti-MEM I medium. After 1-hr incubation, cells were fixed for 10 min at room temperature with a fixation solution (2% formaldehyde, 0.2% glutaraldehyde in PBS). Then, the cells were rinsed twice with PBS, and stained for 2 hr with dye (0.1% X-gal, 5 mM potassium ferricyanide, 5 mM potassium ferrocyanide, 2 mM MgCl2 in PBS) to examine their transduction potential (see FIG. 3). The samples showing a low level of staining, even after a 2-hr staining, were incubated overnight, and then stained for the relative transduction potential. The transduction potentials of the PTD and CTP candidates into HeLa cells were seen to be in the following order: PTD5<CTP502<<CTP501=CTP506<CTP507<CTP505<CTP503=CTP504<CTP508=CTP510=MTS<CTP509<<PTD=CTP511<<CTP512.

[2] = system: HeLa cells; test: Subcellular localization of CTP-β-gal by confocal scanning microscope; assay type: cell-based; details: β-galactosidase fusion protein, 100 μg/ml, 1 hr
Text: To select cytoplamic transduction peptides (CTPs) of interest, HeLa cells were transduced with CTP-β-galactosidase, and then examined under the confocal scanning microscope. Before the confocal analysis, cells were stained with mouse anti-β-galactosidase antibody and 2nd antibodies conjugated with FITC (Fluorescence-iso-thio-cyanate) or with PE (phycoerythrin) together with DNA staining reagent (green fluorescence SYTO-16 DNA staining dye, Molecular Probe). First, HeLa cells (5×10^5 cells/ml) were plated onto a 6-well plate containing sterilized cover-slips and cultured overnight at 37° C. CO2 incubator. The cells were washed with PBS (pH 7.4) and 1 ml of an OPTI-MEM I medium was added, followed by treatment with candidate CTP-fused proteins (100 μg/ml). As a positive control, PTD-β-galactosidase fusion protein was employed, and as a negative control, only β-galactosidase protein was used. Following the treatment with candidate CTP-β-galactosidase fusion proteins, cells were incubated for 1 hr at 37° C. incubator. The cells were rinsed three times with PBS and fixed with 2% paraformaldehyde for 20 min at 4° C. HeLa cells fixed were washed twice with washing buffer (PBS containing 0.2% BSA and 0.02% sodium azide). To stain the cells with antibody, cells were pre-treated with 0.5% Triton X-100 (in PBS, Sigma) at 4° C. for 20 min. Cells were washed three times with washing buffer and then stained with mouse anti-β-galactosidase antibody (diluted 1:2,000, Sigma) for 1 hr at 4° C. as a primary antibody and then washed three times with washing buffer. Cells were then incubated with FITC-conjugated goat anti-mouse IgG (diluted 1:2,000, Jackson Laboratory) as a secondary antibody for 20 min at 4° C. Washed 3 times with the same washing buffer, cells were fixed on a slide glass with fluorescence mounting medium (DAKO) and the edge of slide glass was sealed with nail vanish.
Double staining was carried out with SYTO-16 DNA staining dye as follows: First, the cells were incubated with the primary antibodies under the same conditions and rinsed three times. Then, the cells were incubated at 4° C. for 20 min with PE-conjugated goat anti-mouse IgG PE (diluted 1:2,000, Jackson Laboratory). Washed three times with washing buffer, cells were incubated with SYTO-16 DNA staining dye (diluted 1:1,000, DAKO) for 20 min at 4° C. Cells were fixed and sealed on a slide glass and then examined under a confocal laser scanning microscope.
In the present experiment, LEICA TCS NT SP confocal microscope (LEICA Lasertech GmbH, Heidelverg, Germany) was employed, which was equipped with lager generator of argon (Ar) and krypton (Kr), scanning device, and filter capable of detecting FITC (510–550 nm) and PE (600–660) at independent channel. Photographs were taken by PL-APO X100 objective. For single staining, the cells were sectioned into 4-layers and fluorescence and transmission photographs were taken. For double staining, FITC, PE, and transmission photographs were taken using optimal respective filter.

[3] = system: HeLa cells; test: Subcellular localization of CTP-FITC by confocal microscope without cell fixation; assay type: cell-based; details: FITC-labeled peptide, 25 μg/ml, 1 hr
Text: Fixation step is inevitable for examining the subcellular localization of the transduced β-gal in the cells with antibodies. However, according to the previous reports, the fusion protein attached to cell surface is very likely to be introduced into the cell during a cell fixation procedure, which may affect its transduction potential and its subcellular localization. However, FITC-labeled membrane permeation peptides allow its subcellular localization to be observed under a confocal microscope without cell fixation. Monolayered HeLa cells were treated for 1 hr with FITC-labeled CTP, PTD or MTS at a concentration of 25 μg/ml, and washed three times with HBSS, followed by observation under a confocal microscope without cell fixation.

[4] = system: HeLa cells; test: Transduction potential of CTP-β-gal following treatment with trypsin (staining); assay type: cell-based; details: 50 μg/ml, 20 hr, trypsin before fixation
Method: HeLa cells were cultured for 1 day in DMEM (high glucose) at a density of 2×10^5/ml in 48-well plates. Cells were washed once with 1× PBS, and then incubated further for additional 20 hr in OPTI-MEM containing PTD-β-gal, MTS-β-gal, CTP501-β-gal or CTP514-β-gal, respectively, at a concentration of 50 μg/ml. Thereafter, the cells were treated with trypsin-EDTA (10×) for 3 min at 37° C. to remove the CPP-β-gal attached to the cell surface, and then rinsed twice with 1× PBS, followed by fixing with a fixation solution for 10 min at room temperature. After washing twice with 1× PBS, the cells were stained with a staining solution for 2 hr at 37° C. and photographed under a microscope (FIG. 6b).

[5] = cited from earlier work
[6] = β-galactosidase fusion protein, HeLa cells

## CTP501: CTP candidate (1P), sequence PARAARRAARR
[1]; [6]
  transduction potential: low-potential
[1]
  order of transduction potentials into HeLa cells: CTP502<<CTP501=CTP506

## CTP502: CTP candidate (2P), sequence YPRAARRAARR
[1]; [6]
  transduction potential: low-potential
[1]
  order of transduction potentials into HeLa cells: PTD5<CTP502<<CTP501

## CTP503: CTP candidate (2R11A), sequence YRRAARRAARA
[1]; [6]
  transduction potential: excellent transduction potential
[1]
  order of transduction potentials into HeLa cells: CTP505<CTP503=CTP504

## CTP504: CTP candidate (2G), sequence YGRAARRAARR
[1]; [6]
  transduction potential as percentage of wild type PTD fusion protein: 10%
  transduction potential higher than PTD5: 20 fold
  transduction potential: excellent transduction potential
[1]
  order of transduction potentials into HeLa cells: CTP503=CTP504<CTP508
[2]
  cytoplasmic remaining property / subcellular localization: high cytoplasmic remaining property

## CTP505: CTP candidate (4E), sequence YAREARRAARR
[1]; [6]
  transduction potential: excellent transduction potential
[1]
  order of transduction potentials into HeLa cells: CTP507<CTP505<CTP503

## CTP506: CTP candidate (2E4E), sequence YEREARRAARR
[1]; [6]
  transduction potential: low-potential
[1]
  order of transduction potentials into HeLa cells: CTP501=CTP506<CTP507

## CTP507: CTP candidate (2K), sequence YKRAARRAARR
[1]; [6]
  transduction potential: low-potential; also recorded: excellent transduction potential
[1]
  order of transduction potentials into HeLa cells: CTP506<CTP507<CTP505

## CTP508: CTP candidate (4K), sequence YARKARRAARR
[1]; [6]
  transduction potential as percentage of wild type PTD fusion protein: 20%
  transduction potential: excellent transduction potential; also recorded: transduction potential lower than wild type PTD; also recorded: significantly high transduction potential
[1]
  order of transduction potentials into HeLa cells: CTP504<CTP508=CTP510=MTS
[2]
  cytoplasmic remaining property / subcellular localization: much stronger cytoplasmic remaining property than PTD; also recorded: much higher than the wild type PTD; also recorded: significantly high
[3]
  subcellular localization: observed only in the cytoplasm, and not in the nucleus

## CTP509: CTP candidate (2K4K), sequence YKRKARRAARR
[1]; [6]
  transduction potential: transduction potential higher than CTP508; also recorded: transduction potential lower than wild type PTD; also recorded: significantly high transduction potential
[1]
  order of transduction potentials into HeLa cells: MTS<CTP509<<PTD
[2]
  cytoplasmic remaining property / subcellular localization: much stronger cytoplasmic remaining property than PTD; also recorded: much higher than the wild type PTD; also recorded: significantly high

## CTP510: CTP candidate (2G4R), sequence YGRRARRAARR
[1]
  order of transduction potentials into HeLa cells: CTP508=CTP510=MTS

## CTP511: CTP candidate (2G4R8R), sequence YGRRARRRARR
[1]; [6]
  transduction potential: transduction potential similar to the wild type PTD; also recorded: significantly high transduction potential
[1]; β-galactosidase fusion protein, HeLa cells, listed as CTP 511
  transduction potential: transduction potential identical to PTD
[1]
  order of transduction potentials into HeLa cells: PTD=CTP511<<CTP512
[2]
  cytoplasmic remaining property / subcellular localization: significantly high
[2]; listed as CTP 511
  cytoplasmic remaining property / subcellular localization: excellent cytoplasmic remaining property
[4]
  β-gal activity transduced into cells: almost equivalent to that of the PTD

## CTP513: CTP (2G4R5R8R9R), sequence YGRRRRRRRRR
[4]
  β-gal activity transduced into cells: much more efficient to transduce β-gal into cells than either PTD or MTS
[3]
  order of transduction potential: CTP512>513>>514
  subcellular localization: observed only in the cytoplasm, and not in the nucleus

## CTP514: CTP (2R4R5R8R9R), sequence YRRRRRRRRRR
[4]
  β-gal activity transduced into cells: almost equivalent to that of the PTD
[3]
  subcellular localization: observed only in the cytoplasm, and not in the nucleus

## PTD5: PTD derivative of the Dowdy group; differs from CTP504 only by alanine at position 2, i.e. YARAARRAARR (CTP50, Table 1) [reference compound]
[1]
  order of transduction potentials into HeLa cells: PTD5<CTP502
[2]
  cytoplasmic remaining property / subcellular localization: relatively increased pattern in terms of the extent it remains in the cytoplasm as compared to PTD
[5]; peptides, reported by the Dowdy group
  efficiency of delivering peptides into the cell, higher than PTD (TAT): 8 fold

## RRRRRRRRR [Arg polycationic homopolymer]
[5]; Wender et al., 2000
  transduction efficiency greater than Tat PTD: 20 fold

## YGRKKRRQRRR [PTD, protein transduction domain of HIV-1 Tat protein, reference compound]
[1]
  order of transduction potentials into HeLa cells: CTP509<<PTD=CTP511
[3]
  subcellular localization: FITC signal only in the nucleus, but not in the cytoplasm
